Laboratory results published in patent publication US20230228736A1, “IN VITRO HBV CORE PROTEIN ASSAY” (Janssen Sciences Ireland Unlimited Company, priority 2020, published 2023).
Like-named read-outs stand apart in the source and are kept apart here.

Experiments:
HBV core protein = molecular target: T1, HBV core protein (Hepatitis B virus genotype D subtype ayw, UniProt P03146); experiment: Cellular HBV core high-content imaging assay (cytosolic and nuclear aggregated core / core speckling); assay type: cell-based; details: HepG2.117 cells; for dose-dependent cytoplasmic and nuclear core speckling phenotype / Cytosolic aggregated core Median max effect at 25 μM (Range) / Nuclear aggregated core Median max effect at 25 μM (Range) / EC50: 72 h; for dose-dependent cytoplasmic and nuclear core speckling phenotype: 11 concentrations, robustness test; for Cytosolic aggregated core Median max effect at 25 μM (Range) / Nuclear aggregated core Median max effect at 25 μM (Range): normalized to 1 μM GLS-4 high control (100% effect); for EC50: median over inter-/intra-assay plate groups
T1 construct: withdrawal of doxycycline from the cell culture medium which results in expression of core and polymerase HBV proteins; expressed in transfected cells; host or cells: HepG2.117 (human hepatoma-derived, stably transfected with the HBV genome, Tet-off)
Procedure: After trypsinization, HepG2.117 cells were washed once with phosphate buffered saline (PBS). Cells were centrifuged at 1,500 rpm for 5 minutes and divided in two fractions. The fraction that was used for the core-suppressed HepG2.117 cell controls (background control, BC) was resuspended in DMEM supplemented with 2% Tet-system-approved fetal calf serum (FCS; Clontech), 2 mM alanyl-glutamine, lx non-essential amino acids (NEAA; Sigma-Aldrich), and 100 ng/ml doxycycline to suppress core expression. The other fraction was resuspended in DMEM supplemented with 2% Tet-system-approved FCS, 2 mM alanyl-glutamine, and 1×NEAA and used for sample wells, the core-expressing low control wells (LC) and aggregated core-expressing high control wells (HC). 2,000 cells per well were seeded for the assay validation, while 1,500 cells per well were seeded in the cellular screening campaign. Test compound-containing 384-well black poly-D-lysine CellCarrier tissue culture treated plates with an optically clear bottom (Perkin Elmer, Waltham, Mass.) were used. Test compounds were used in dose range in the presence of 1% dimethyl sulfoxide (DMSO). Aggregated core expressing high control wells were treated with 1 μM GLS-4. Compound plates with seeded cells were incubated for 72 h at 37° C. and 5% CO2.
After about 72 hours, cells were fixed with 5% ultra-pure methanol-free formaldehyde (Polysciences, Warrington, Pa.) for 15 minutes and washed three times with PBS. Next, cells were permeabilized for 30 minutes using 0.5% Triton-X-100 (Sigma-Aldrich) dissolved in PBS and washed again three times with PBS. Cells were incubated for 1 hour with PBS containing 5% bovine serum albumin to block Fc receptors. Core protein was detected with primary monoclonal mouse core antibody at a concentration of 666 ng/ml or polyclonal rabbit core antibody at a concentration of 65 μg/ml in PBS containing 5% bovine serum albumin (Sigma-Aldrich). After overnight incubation at 4° C., cells were washed three times with PBS and primary antibody was detected with 2 μg/ml Alexa Fluor-488 goat anti-mouse or goat anti-rabbit secondary antibody. Nuclei and cytoplasm were co-stained using 2 μg/ml Hoechst 33258 (nuclei) and 500 ng/ml HCS CellMask™ Deep Red (entire cells) solution. After 1 hour of incubation at room temperature, cells were washed three times with PBS.
The Opera Phenix™ high-content screening system (Perkin Elmer) was used for automated imaging. A 405-nm laser with 100% power was used with an exposure time of 200 ms to excite Hoechst 33258 (emitting its fluorescent light at 461-nm); emission light was captured using a 435/480 nm emission filter. Simultaneously, HCS CellMask™ Deep Red signal (emitting its fluorescent light at 655-nm) was excited by a 635-nm laser with a 25 ms exposure time and a laser power reduced to 25%; red emitted light was captured using an emission filter of 650/760 nm. Alexa Fluor 488 fluorophores were excited using a 488-nm laser with 100% power and an exposure of 200 ms, whereby the emission filter 500/550 nm was chosen. This detection was performed independently from Hoechst and HCS CellMask™ Deep Red as the fluorescence spectrum of Hoechst overlaps with that of Alexa Fluor-488. A 20× water immersion objective with a numerical aperture of 1.0 was used for imaging of four fields per well.
Images were analyzed with a custom Acapella (Perkin Elmer) script. Nuclei identification was based on the Hoechst 33258 channel, cytoplasm segmentation was based on the HCS CellMask™ Deep Red channel and core protein intensity and texture features were calculated using the Alexa Fluor 488 channel. The cell count feature was used as a measure for cytotoxicity. […] The texture feature “SERSpot” at scale 1.0 was calculated in the nuclear and cytoplasm region of each cell to quantify aggregated core and averaged across all cells on the well-level.

[1] = molecular target: T2, intracellular capsids (HBV core protein) (Hepatitis B virus genotype D subtype ayw, UniProt P03146); experiment: Capsid depletion assay: native polyacrylamide gel electrophoresis with immunoblotting for detection of capsids; assay type: cell-based; details: HepG2.117 cells treated for 3 days, native PAGE/western blot
T2 construct: withdrawal of doxycycline from the cell culture medium which results in expression of core and polymerase HBV proteins; expressed in transfected cells; host or cells: HepG2.117 (human hepatoma-derived, stably transfected with the HBV genome, Tet-off)
Procedure: HepG2.117 cells cultured in 2% serum containing assay medium as described above were plated in a 12-well plate at a cell density of 500,000 cells/well and incubated at 37° C. and 5% CO2. After overnight incubation, cells were treated with test compound or DMSO for 72 hours at 37° C. and 5% CO2. Afterwards, cells were washed once with PBS and lysed with 300 μl 10 mM Tris-HCl (pH 7.6), 100 mM NaCl, 1 mM ethylenediaminetetraacetic acid (EDTA), and 0.1% NP-40 supplemented with 1× Halt™ Protease Inhibitor Cocktail (Thermo Fisher Scientific, Waltham, Mass.). After lysis of the cells at 37° C. for 10 minutes, cell debris was discarded by centrifugation at 5,000×g for 10 minutes. Supernatant was collected and protein concentration was determined using the DC (detergent compatible) protein assay (Bio-Rad, Hercules, Calif.). Of protein/sample, 2.2 μg was loaded on a NativePAGE™ Novex® 3-12% Bis-Tris Gel (Invitrogen, Waltham, Mass.) with electrophoresis performed at room temperature using NativePAGE™ Running Buffer and NativePAGE™ Cathode Additive. Proteins were transferred using the Novex® iBlot® Transfer Stack, PVDF, regular size kit followed by a standard immunoblotting procedure using primary polyclonal rabbit core antibody at a concentration of 16.25 μg/ml with overnight incubation. […]

T1 sequence (P03146 whole entry): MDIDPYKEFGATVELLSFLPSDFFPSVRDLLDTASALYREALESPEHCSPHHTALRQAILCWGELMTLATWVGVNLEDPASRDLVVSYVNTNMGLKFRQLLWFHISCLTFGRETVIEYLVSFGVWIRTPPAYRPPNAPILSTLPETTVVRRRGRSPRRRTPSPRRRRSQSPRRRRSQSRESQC
T2 sequence (P03146 whole entry): as above

Row | SMILES | dose-dependent cytoplasmic and nuclear core speckling phenotype (HBV core protein) | Cytosolic aggregated core Median max effect at 25 μM (Range) (HBV core protein) | Nuclear aggregated core Median max effect at 25 μM (Range) (HBV core protein) | EC50 (HBV core protein; read-out: Cytosolic aggregated core Median EC50 (μM) (Range)) [µM] | EC50 (HBV core protein; read-out: Nuclear aggregated core Median EC50 (μM) (Range)) [µM] | depletion of intracellular capsids [1] | phenotypic core immunostaining pattern (HBV core protein; core expressing (-DOX), FIG. 2A/2B)
1 | COC(=O)C1=C(CN2CCOCC2)NC(c2ccccn2)=NC1c1ccc(F)cc1Cl (stereo not shown) [Compound 5] | dose-dependent cytoplasmic and nuclear core speckling phenotype was observed | 72.1 | 86.2 | 0.078 | 0.085 | – | –
2 | COC(=O)C1=C(C)NC(c2ncc(F)cc2F)=N[C@H]1c1ccc(F)cc1Cl [Compound 14] | dose-dependent cytoplasmic and nuclear core speckling phenotype was observed | 68.1 | 139.2 | – | – | dose-dependent depletion of intracellular capsids | aggregated dot-like pattern of core proteins
